According to patent publication US6996429B2, “Apparatus and method for detecting flinch response to nociceptive agents” (Regents of the Univeristy of California, San Diego, priority 2001, dated 2006):
Entries after “also recorded” stand apart in the source; their conditions may differ. Where two headings read alike, the source gives them in different places.

Legend:
rat hind paw = conditions: for Cumulative flinching behavior (Mean ± SD) Phase I / Cumulative flinching behavior (Mean ± SD) Phase II / Cumulative flinching behavior (Mean ± SD) Phase IIA / Cumulative flinching behavior (Mean ± SD) Phase IIB: N 12
[1] = system: formalin induced flinching in the rat; assay: Effects of systemic and spinal drugs on formalin evoked flinching behavior (automated formalin test); assay type: in vivo
Method: To examine the effects of a drug on flinching behavior, rats received intraperitoneal or intrathecal injections of the drug. Intraperitoneal injections were delivered in volumes of 0.5 ml/kg.
Solutions were prepared fresh daily.
The percent inhibition is computed by dividing the response of each animal in a given group by the respective vehicle control group and multiplying by 100.
5. Test for intrathecal and intraperitoneal drugs on flinch behavior. […] Dose response curves of each agent were generated to relate drug effect to paw flinch and for comparison with previously reported data.

[2] = Formalin, 0.5% vs. Formalin, 2.5%
[3] = No Injection vs. Formalin, 2.5%

With `C=O` [Formalin] the “flinching behavior versus formalin concentration” value (rat hind paw; 0.5%/50 μL to 5.0%/50 μL, all phases, compared to saline, 1-way ANOVA p<0.002) was “concentration-related increase in flinching behavior”, the “peak flinch rate Phase I” value (rat hind paw; 100 male Sprague Dawly rats, Phase I) was ~50 flinches/min and the “peak flinch rate Phase II” value (rat hind paw; 100 male Sprague Dawly rats, Phase II) was ~37 flinches/min. For the same molecule, the “mean cumulative flinches (±SEM) Phase I” value (rat hind paw; 100 male rats, Phase I (0–9 min)) was 203±9, the “mean cumulative flinches (±SEM) Phase II” value (rat hind paw; 100 male rats, Phase II) was 1058±39 and the “mean cumulative flinches (±SEM) Phase IIA” value (rat hind paw; 100 male rats, Phase IIA (10–40 min)) was 792±27. For the same molecule, the “mean cumulative flinches (±SEM) Phase IIB” value (rat hind paw; 100 male rats, Phase IIB (41–60 min)) was 266±16, the “Post hoc group comparison Phase I” value (rat hind paw; Formalin, 0.5% vs. Formalin, 2.5%, Phase I) was “S (S = Significant difference between groups, p < 0.05, Tukey/Kramer post hoc test.)” and the “Post hoc group comparison Phase II” value (rat hind paw; Formalin, 0.5% vs. Formalin, 2.5%, Phase II) was “S (S = Significant difference between groups, p < 0.05, Tukey/Kramer post hoc test.)”. The “Post hoc group comparison Phase IIA” value (rat hind paw; [2]) was “S (S = Significant difference between groups, p < 0.05, Tukey/Kramer post hoc test.)”, the “Post hoc group comparison Phase IIB” value (rat hind paw; [2]) was “S (S = Significant difference between groups, p < 0.05, Tukey/Kramer post hoc test.)” and the “Post hoc group comparison Phase I” value (rat hind paw; Formalin, 0.5% vs. Formalin, 5.0%, Phase I) was “S (S = Significant difference between groups, p < 0.05, Tukey/Kramer post hoc test.)”. The “Post hoc group comparison Phase II” value (rat hind paw; Formalin, 0.5% vs. Formalin, 5.0%, Phase II) was “S (S = Significant difference between groups, p < 0.05, Tukey/Kramer post hoc test.)”, the “Post hoc group comparison Phase IIA” value (rat hind paw; Formalin, 0.5% vs. Formalin, 5.0%) was “S (S = Significant difference between groups, p < 0.05, Tukey/Kramer post hoc test.)” and the “Cumulative flinching behavior (Mean ± SD) Phase I” value (rat hind paw; Formalin, 0.5%, Phase I) was 127 ± 66. For the same molecule, the “Cumulative flinching behavior (Mean ± SD) Phase II” value (rat hind paw; Formalin, 0.5%, Phase II) was 400 ± 185, the “Cumulative flinching behavior (Mean ± SD) Phase IIA” value (rat hind paw; Formalin, 0.5%) was 301 ± 169 and the “Cumulative flinching behavior (Mean ± SD) Phase IIB” value (rat hind paw; Formalin, 0.5%) was 100 ± 79. For the same molecule, the “Post hoc group comparison Phase II” value (rat hind paw; Formalin, 1.0% vs. Formalin, 2.5%, Phase II) was “S (S = Significant difference between groups, p < 0.05, Tukey/Kramer post hoc test.)”, the “Cumulative flinching behavior (Mean ± SD) Phase I” value (rat hind paw; Formalin, 1.0%, Phase I) was 171 ± 55 and the “Cumulative flinching behavior (Mean ± SD) Phase II” value (rat hind paw; Formalin, 1.0%, Phase II) was 613 ± 265. For the same molecule, the “Cumulative flinching behavior (Mean ± SD) Phase IIA” value (rat hind paw; Formalin, 1.0%) was 495 ± 211, the “Cumulative flinching behavior (Mean ± SD) Phase IIB” value (rat hind paw; Formalin, 1.0%) was 118 ± 100 and the “Cumulative flinching behavior (Mean ± SD) Phase I” value (rat hind paw; Formalin, 2.5%, Phase I) was 214 ± 75. For the same molecule, the “Cumulative flinching behavior (Mean ± SD) Phase II” value (rat hind paw; Formalin, 2.5%, Phase II) was 898 ± 266, the “Cumulative flinching behavior (Mean ± SD) Phase IIA” value (rat hind paw; Formalin, 2.5%) was 662 ± 210 and the “Cumulative flinching behavior (Mean ± SD) Phase IIB” value (rat hind paw; Formalin, 2.5%) was 236 ± 148. The “Cumulative flinching behavior (Mean ± SD) Phase I” value (rat hind paw; Formalin, 5.0%, Phase I) was 230 ± 84, the “Cumulative flinching behavior (Mean ± SD) Phase II” value (rat hind paw; Formalin, 5.0%, Phase II) was 811 ± 194 and the “Cumulative flinching behavior (Mean ± SD) Phase IIA” value (rat hind paw; Formalin, 5.0%) was 659 ± 131. For the same molecule, the “Cumulative flinching behavior (Mean ± SD) Phase IIB” value (rat hind paw; Formalin, 5.0%) was 152 ± 88, the “Post hoc group comparison Phase II” value (rat hind paw; No Injection vs. Formalin, 1.0%, Phase II) was “S (S = Significant difference between groups, p < 0.05, Tukey/Kramer post hoc test.)” and the “Post hoc group comparison Phase IIA” value (rat hind paw; No Injection vs. Formalin, 1.0%) was “S (S = Significant difference between groups, p < 0.05, Tukey/Kramer post hoc test.)”. For the same molecule, the “Post hoc group comparison Phase I” value (rat hind paw; No Injection vs. Formalin, 2.5%, Phase I) was “S (S = Significant difference between groups, p < 0.05, Tukey/Kramer post hoc test.)”, the “Post hoc group comparison Phase II” value (rat hind paw; No Injection vs. Formalin, 2.5%, Phase II) was “S (S = Significant difference between groups, p < 0.05, Tukey/Kramer post hoc test.)” and the “Post hoc group comparison Phase IIA” value (rat hind paw; [3]) was “S (S = Significant difference between groups, p < 0.05, Tukey/Kramer post hoc test.)”. For the same molecule, the “Post hoc group comparison Phase IIB” value (rat hind paw; [3]) was “S (S = Significant difference between groups, p < 0.05, Tukey/Kramer post hoc test.)”, the “Post hoc group comparison Phase I” value (rat hind paw; No Injection vs. Formalin, 5.0%, Phase I) was “S (S = Significant difference between groups, p < 0.05, Tukey/Kramer post hoc test.)” and the “Post hoc group comparison Phase II” value (rat hind paw; No Injection vs. Formalin, 5.0%, Phase II) was “S (S = Significant difference between groups, p < 0.05, Tukey/Kramer post hoc test.)”. The “Post hoc group comparison Phase IIA” value (rat hind paw; No Injection vs. Formalin, 5.0%) was “S (S = Significant difference between groups, p < 0.05, Tukey/Kramer post hoc test.)”, the “Post hoc group comparison Phase I” value (rat hind paw; Saline vs. Formalin, 1.0%, Phase I) was “S (S = Significant difference between groups, p < 0.05, Tukey/Kramer post hoc test.)” and the “Post hoc group comparison Phase II” value (rat hind paw; Saline vs. Formalin, 1.0%, Phase II) was “S (S = Significant difference between groups, p < 0.05, Tukey/Kramer post hoc test.)”. For the same molecule, the “Post hoc group comparison Phase I” value (rat hind paw; Saline vs. Formalin, 2.5%, Phase I) was “S (S = Significant difference between groups, p < 0.05, Tukey/Kramer post hoc test.)”, the “Post hoc group comparison Phase II” value (rat hind paw; Saline vs. Formalin, 2.5%, Phase II) was “S (S = Significant difference between groups, p < 0.05, Tukey/Kramer post hoc test.)” and the “Post hoc group comparison Phase IIA” value (rat hind paw; Saline vs. Formalin, 2.5%) was “S (S = Significant difference between groups, p < 0.05, Tukey/Kramer post hoc test.)”. For the same molecule, the “Post hoc group comparison Phase IIB” value (rat hind paw; Saline vs. Formalin, 2.5%) was “S (S = Significant difference between groups, p < 0.05, Tukey/Kramer post hoc test.)”, the “Post hoc group comparison Phase I” value (rat hind paw; Saline vs. Formalin, 5.0%, Phase I) was “S (S = Significant difference between groups, p < 0.05, Tukey/Kramer post hoc test.)” and the “Post hoc group comparison Phase II” value (rat hind paw; Saline vs. Formalin, 5.0%, Phase II) was “S (S = Significant difference between groups, p < 0.05, Tukey/Kramer post hoc test.)”. For the same molecule, the “Post hoc group comparison Phase IIA” value (rat hind paw; Saline vs. Formalin, 5.0%) was “S (S = Significant difference between groups, p < 0.05, Tukey/Kramer post hoc test.)” and the “formalin concentration at which the maximum (plateau) of flinching was observed” value (rat hind paw; range 0.5 to 5%) was 2.5%.

With `C[C@]12N[C@H](Cc3ccccc31)c1ccccc12` [MK801] the “ED50 Phase II (Mean and 95% confidence intervals)” value ([1]; IT (intrathecal), Phase II (10–60 min), from % MPE dose effect curves) was 9.5 (87-1.0) μg, the “ED50 Phase IIA (Mean and 95% confidence intervals)” value ([1]; IT (intrathecal), Phase IIA (10–40 min), from % MPE dose effect curves) was 7.3 (43-1.2) μg and the “effect on the flinching response” value ([1]; intrathecal injection) was “potent dose dependent reduction in Phase II but not Phase I”. For the same molecule, the “effect on the flinching response” value ([1]; systemic (intraperitoneal) injection) was “potent dose dependent reduction in Phase II but not Phase I” and the “flinching behavior at the lowest doses” value ([1]; systemic delivery, lowest doses) was “apparent increase in flinching behavior at the lowest doses”.

In the case of `CN1CC[C@]23c4c5ccc(O)c4O[C@H]2[C@@H](O)C=C[C@H]3[C@H]1C5.O=S(=O)(O)O` [Morphine, morphine sulfate], the “effect on the flinching response” value ([1]; intrathecal injection, sulfate) is reported as “potent dose dependent reduction of all phases of the flinching response; also recorded: dose-dependent reduction in all phases of the response to formalin” and the “effect on the flinching response” value ([1]; systemic (intraperitoneal) injection, sulfate) is reported as “potent dose dependent reduction of all phases of the flinching response; also recorded: dose-dependent reduction in all phases of the response to formalin”.
